# Test results: patent US20220117938A1, “COMBINATON THERAPY WITH A DON PRODRUG AND AN IMMUNE CHECKPOINT INHIBITOR” (DRACEN PHARMACEUTICALS, INC., priority 2019, published 2022)
# System: CT26.WT tumors
# Experiment: Anti-tumor efficacy of Compound 1 and Compound 1 in combination with anti-PD-1 in the CT26.WT syngeneic model (Example 10)
# Type: in vivo, mice
# Description: Female BALB/c mice were inoculated subcutaneously in the right flank with CT26.WT cells for tumor development. Six days after tumor inoculation, mice with tumor sizes ranging from 30-81 mm^3 (average tumor size 55 mm^3) were selected and assigned into 10 groups using stratified randomization with 8 mice per group based upon their tumor volumes. The treatments were started from the day of randomization (defined as D0), Group 1 was treated with Vehicle control, 10 mpk, SC, qd 5 days on (Mon-Fri)×4 cycles; Group 2 was treated with Anti-PD-1, 10 mpk, IP, q4d×6; Group 3 was treated with Compound 1, 1.4 mpk, SC, qd 5 days on (Mon-Fri)×4 cycles; Group 4 was treated with Compound 1+anti-PD-1, 1.4 mpk+10 mpk, SC, qd 5 days on (Mon-Fri)×4 cycles+IP, q4d×6; Group 5 was treated with Compound 1, 10.5 mpk, IV, biw (Mon, Thu)×4 cycles; Group 6 was treated with Compound 1+anti-PD-1, 10.5 mpk+10 mpk, IV, biw (Mon, Thu)×4 cycles+IP, q4d×6; Group 7 was treated with Compound 1, 7 mpk IV, tiw (Mon, Wed, Fri)×4 cycles; Group 8 was treated with Compound 1+anti-PD-1, 7 mpk+10 mpk, IV, tiw (Mon, Wed, Fri)×4 cycles+IP, q4d×6; Group 9 was treated with Compound 1, 7 mpk IV, tiw (Mon, Tue, Wed)×4 cycles; and Group 10 was treated with Compound 1+anti-PD-1, 7 mpk+10 mpk, IV, tiw (Mon, Tue, Wed)×4 cycles+IP, q4d×6. The tumor sizes were measured three times per week during the treatment. Survival was monitored with tumor volume exceeding 2000 mm^3 as endpoint. The entire study was terminated on D56 after start of the treatment. All treatments were well-tolerated without any adverse effects or significant body weight loss.
# [1] = Group 3, 1.4 mpk SC qd Mon-Fri x4 cycles
# [2] = Group 3, 1.4 mpk SC qd Mon-Fri x4 cycles, day 14
# [3] = Group 5, 10.5 mpk IV biw x4 cycles
# [4] = Group 5, 10.5 mpk IV biw x4 cycles, day 14
# [5] = Group 7, 7 mpk IV tiw (Mon,Wed,Fri) x4 cycles
# [6] = Group 7, 7 mpk IV tiw (Mon,Wed,Fri) x4 cycles, day 14
# [7] = Group 9, 7 mpk IV tiw (Mon,Tue,Wed) x4 cycles
# [8] = Group 9, 7 mpk IV tiw (Mon,Tue,Wed) x4 cycles, day 14
smiles,measurement,setting,value
"CC(=O)N[C@@H](Cc1c[nH]c2ccccc12)C(=O)N[C@@H](CCC(=O)C=[N+]=[N-])C(=O)OC(C)C [Compound 1, Isopropyl (S)-2-((S)-2-acetamido-3-(1H-indol-3-yl)propanamido)-6-diazo-5-oxohexanoate]",ILS,[1],81.0%
same,MST,[1],38 days
same,RTV at day 14,[1],3.07 ± 0.38
same,Tumor Size at day 14,[1],172 ± 29 mm^3
same,Tumor volume,"Group 3, 1.4 mpk SC qd Mon-Fri x4 cycles, day 0",56 ± 5 mm^3
same,Tumor volume,"Group 3, 1.4 mpk SC qd Mon-Fri x4 cycles, day 2",59 ± 5 mm^3
same,Tumor volume,"Group 3, 1.4 mpk SC qd Mon-Fri x4 cycles, day 11",103 ± 13 mm^3
same,T/C,[2],17.06%
same,TGI,[2],88.16%
same,Tumor volume,[2],172 ± 29 mm^3
same,Tumor volume,"Group 3, 1.4 mpk SC qd Mon-Fri x4 cycles, day 16",163 ± 20 mm^3
same,Tumor volume,"Group 3, 1.4 mpk SC qd Mon-Fri x4 cycles, day 18",191 ± 26 mm^3
same,Tumor volume,"Group 3, 1.4 mpk SC qd Mon-Fri x4 cycles, day 21",258 ± 25 mm^3
same,Tumor volume,"Group 3, 1.4 mpk SC qd Mon-Fri x4 cycles, day 23",276 ± 36 mm^3
same,Tumor volume,"Group 3, 1.4 mpk SC qd Mon-Fri x4 cycles, day 25",278 ± 42 mm^3
same,Tumor volume,"Group 3, 1.4 mpk SC qd Mon-Fri x4 cycles, day 28",466 ± 62 mm^3
same,Tumor volume,"Group 3, 1.4 mpk SC qd Mon-Fri x4 cycles, day 30",682 ± 103 mm^3
same,Tumor volume,"Group 3, 1.4 mpk SC qd Mon-Fri x4 cycles, day 32",1012 ± 189 mm^3
same,Tumor volume,"Group 3, 1.4 mpk SC qd Mon-Fri x4 cycles, day 35",1417 ± 260 mm^3
same,ILS,[3],76.2%
same,MST,[3],37 days
same,RTV at day 14,[3],3.21 ± 1.03
same,Tumor Size at day 14,[3],170 ± 51 mm^3
same,Tumor volume,"Group 5, 10.5 mpk IV biw x4 cycles, day 0",56 ± 5 mm^3
same,Tumor volume,"Group 5, 10.5 mpk IV biw x4 cycles, day 2",52 ± 5 mm^3
same,Tumor volume,"Group 5, 10.5 mpk IV biw x4 cycles, day 11",113 ± 24 mm^3
same,T/C,[4],17.83%
same,TGI,[4],88.39%
same,Tumor volume,[4],170 ± 51 mm^3
same,Tumor volume,"Group 5, 10.5 mpk IV biw x4 cycles, day 16",214 ± 60 mm^3
same,Tumor volume,"Group 5, 10.5 mpk IV biw x4 cycles, day 18",226 ± 59 mm^3
same,Tumor volume,"Group 5, 10.5 mpk IV biw x4 cycles, day 21",381 ± 119 mm^3
same,Tumor volume,"Group 5, 10.5 mpk IV biw x4 cycles, day 23",439 ± 128 mm^3
same,Tumor volume,"Group 5, 10.5 mpk IV biw x4 cycles, day 25",562 ± 197 mm^3
same,Tumor volume,"Group 5, 10.5 mpk IV biw x4 cycles, day 28",849 ± 264 mm^3
same,ILS,[5],76.2%
same,MST,[5],37 days
same,RTV at day 14,[5],3.34 ± 0.97
same,Tumor Size at day 14,[5],201 ± 67 mm^3
same,Tumor volume,"Group 7, 7 mpk IV tiw (Mon,Wed,Fri) x4 cycles, day 0",55 ± 5 mm^3
same,Tumor volume,"Group 7, 7 mpk IV tiw (Mon,Wed,Fri) x4 cycles, day 2",61 ± 9 mm^3
same,Tumor volume,"Group 7, 7 mpk IV tiw (Mon,Wed,Fri) x4 cycles, day 11",111 ± 33 mm^3
same,T/C,[6],18.56%
same,TGI,[6],85.12%
same,Tumor volume,[6],201 ± 67 mm^3
same,Tumor volume,"Group 7, 7 mpk IV tiw (Mon,Wed,Fri) x4 cycles, day 16",238 ± 94 mm^3
same,Tumor volume,"Group 7, 7 mpk IV tiw (Mon,Wed,Fri) x4 cycles, day 18",256 ± 101 mm^3
same,Tumor volume,"Group 7, 7 mpk IV tiw (Mon,Wed,Fri) x4 cycles, day 21",471 ± 261 mm^3
same,ILS,[7],92.9%
same,MST,[7],40.5 days
same,RTV at day 14,[7],2.32 ± 0.84
same,Tumor Size at day 14,[7],132 ± 46 mm^3
same,Tumor volume,"Group 9, 7 mpk IV tiw (Mon,Tue,Wed) x4 cycles, day 0",56 ± 4 mm^3
same,Tumor volume,"Group 9, 7 mpk IV tiw (Mon,Tue,Wed) x4 cycles, day 11",79 ± 19 mm^3
same,T/C,[8],12.89%
same,TGI,[8],92.20%
same,Tumor volume,[8],132 ± 46 mm^3
same,Tumor volume,"Group 9, 7 mpk IV tiw (Mon,Tue,Wed) x4 cycles, day 16",131 ± 52 mm^3
same,Tumor volume,"Group 9, 7 mpk IV tiw (Mon,Tue,Wed) x4 cycles, day 18",160 ± 65 mm^3
same,Tumor volume,"Group 9, 7 mpk IV tiw (Mon,Tue,Wed) x4 cycles, day 21",248 ± 104 mm^3
same,Tumor volume,"Group 9, 7 mpk IV tiw (Mon,Tue,Wed) x4 cycles, day 23",252 ± 103 mm^3
same,Tumor volume,"Group 9, 7 mpk IV tiw (Mon,Tue,Wed) x4 cycles, day 25",255 ± 106 mm^3
same,Tumor volume,"Group 9, 7 mpk IV tiw (Mon,Tue,Wed) x4 cycles, day 28",447 ± 186 mm^3
same,Tumor volume,"Group 9, 7 mpk IV tiw (Mon,Tue,Wed) x4 cycles, day 30",695 ± 300 mm^3
